{
  "source": "paper PMC5589077",
  "about": "(ACS chemical neuroscience, 2015)",
  "origin": "cited, not measured here",
  "key": {"α4β2-nAChR": {"biological_target": "α4β2-nAChR", "conditions": "read-out: Ki at α4β2-nAChR; cited from earlier work"}, "α6/α3β2β3-nAChR [1]": {"biological_target": "α6/α3β2β3-nAChR", "conditions": "read-out: Ki at α6/α3β2β3-nAChR; cited from earlier work"}, "[2]": {"system": "nonhuman primates with established LID", "conditions": "without reducing antiparkinsonian benefits; cited from earlier work"}, "α6/α3β2β3-nAChR [3]": {"system": "α6/α3β2β3-nAChR", "conditions": "calcium-flux, cited from earlier work"}, "rats [4]": {"system": "rats", "conditions": "cited from earlier work"}, "rats [5]": {"system": "rats", "conditions": "cited from earlier work", "remark": "listed apart in the source"}, "rats [6]": {"system": "rats", "conditions": "rat, in vivo; cited from earlier work"}},
  "note": "No end group written: not given here.",
  "data": [
    {"compound": "O=C(C1CC1)N1CC2CC(C1)N2", "note": "[compound 8, 3-cyclopropylcarbonyl-3,6-dazabicyclo[3.1.1]heptane]", "values": [
      {"measurement": "Ki", "setting": "α4β2-nAChR", "result": 3, "unit": "nM"},
      {"measurement": "Ki", "setting": "α6/α3β2β3-nAChR [1]", "result": 21, "unit": "nM"},
      {"measurement": "effect on L-dopa induced dyskinesia (LID)", "setting": "[2]", "result": "ameliorated"},
      {"measurement": "Emax at α6/α3β2β3-nAChR", "setting": "α6/α3β2β3-nAChR [3]", "result": 100, "unit": "%"},
      {"measurement": "EC50", "setting": "α6/α3β2β3-nAChR [3]; read-out: EC50 at α6/α3β2β3-nAChR", "result": 80, "unit": "nM"},
      {"measurement": "effect on abnormal involuntary movements (AIMs)", "setting": "rats [4]", "result": "reduced abnormal involuntary movements"}
    ]},
    {"compound": "Cc1ccc[n+](CCCCCCCCCC[n+]2cccc(C)c2)c1", "note": "[compound 9, N,N′-decane-diyl-bis-3-picolinium]", "values": [
      {"measurement": "effect on nicotine SA", "setting": "rats [5]", "result": "reduce nicotine SA"}
    ]},
    {"compound": "α-Ctx MII (GCCSNPVCHLEHSNLC; ends and bridges not checked; cysteine pairing not given here; UniProt P56636 49-64, looked up)", "values": [
      {"measurement": "effect on established nicotine self-administration", "setting": "rats [6]", "result": "attenuated established nicotine self-administration"}
    ]}
  ]
}
